Read-outs that look alike come from different tables or passages of the source.
Key:
Type in all cases: in vivo
Bipolaris maydis = test: whole plant or invertebrate; conditions: for inhibition at 500 µM: Bipolaris maydis, in Zea mays, read-out: inhibition rate on the formation of disease spots
Magnaporthe oryzae [1] = test: whole plant or invertebrate; conditions: for inhibition at 500 µM / inhibition at 100 µM: Pyricularia oryzae, read-out: inhibition rate on the number of necrotic spots
Magnaporthe oryzae [2] = test: whole plant or invertebrate; conditions: Pyricularia oryzae, read-out: inhibition rate of formation of rice blast necrotic spots, prevention experimental group
Magnaporthe oryzae [3] = test: whole plant or invertebrate; conditions: Pyricularia oryzae, read-out: inhibition rate of formation of rice blast necrotic spots, treatment experimental group
Blumeria graminis = test: Pathogenicity of Blumeria graminis on wheat leaves; conditions: 500 μmol/L, vs DMSO

Row | SMILES | inhibition at 500 µM (Bipolaris maydis) [%] | inhibition at 500 µM (Magnaporthe oryzae [1]) [%] | inhibition at 500 µM (Magnaporthe oryzae [2]) [%] | inhibition at 500 µM (Magnaporthe oryzae [3]) [%] | inhibition at 100 µM (Magnaporthe oryzae [1]) [%] | inhibition of formation of disease spots on corn leaves (in words) (Bipolaris maydis; in vivo) | inhibition of occurrence of Blumeria graminis disease spots (in words) (Blumeria graminis) | inhibition of the number of necrotic spots of Magnaporthe oryzae (in words) (Magnaporthe oryzae [1]; drug concentration 100 μM, 30 seedlings sprayed with 5 mL, rice)
1 | CCCCOCN(C(=O)CCl)c1c(CC)cccc1CC [Butachlor] | > 50 | > 50 | – | – | – | – | – | –
2 | CCN(CC)C(=O)n1cnc(S(=O)(=O)c2c(C)cc(C)cc2C)n1 [Cafenstrole] | > 50 | > 50 | > 50 | > 50 | > 50 | – | – | –
3 | CC(C)N(C(=O)SC/C(Cl)=C/Cl)C(C)C [Diallate] | – | > 50 | > 50 | > 50 | > 50 | – | – | –
4 | CC(C)N(C(=O)COc1nnc(C(F)(F)F)s1)c1ccc(F)cc1 [Flufenacet] | – | – | – | – | – | not obvious | – | –
5 | Cc1cccc(C)c1N(Cn1cccn1)C(=O)CCl [Metazachlor] | > 50 | > 50 | > 50 | > 50 | > 50 | – | – | –
6 | CC(C)N(C(=O)CCl)c1ccccc1 [Propachlor] | > 50 | – | – | – | – | – | all drugs except Propachlor could inhibit the occurrence of Blumeria graminis disease spots | insignificant inhibitory effect on rice blast
